Literature values, collected in patent US20220288147A1, “GINSENG COMPOSITION AND USE THEREOF AS A MEDICAMENT” (BOTALYS SA, priority 2019, published 2022).

Conditions: oral

Absorption rates of an orally administered dose [%] | Compound
≥ 1.9 | CC(C)=CCC[C@](C)(O)[C@H]1CC[C@]2(C)[C@@H]1[C@H](O)C[C@@H]1[C@@]3(C)CC[C@H](O)C(C)(C)[C@@H]3[C@@H](O[C@@H]3O[C@H](CO)[C@@H](O)[C@H](O)[C@H]3O[C@@H]3O[C@@H](C)[C@H](O)[C@@H](O)[C@H]3O)C[C@]12C [Rg2]
≥ 0.1 | CC(C)=CCC[C@](C)(O[C@@H]1O[C@H](CO)[C@@H](O)[C@H](O)[C@H]1O)[C@H]1CC[C@]2(C)[C@@H]1[C@H](O)C[C@@H]1[C@@]3(C)CC[C@H](O)C(C)(C)[C@@H]3[C@@H](O[C@@H]3O[C@H](CO)[C@@H](O)[C@H](O)[C@H]3O)C[C@]12C [Rg1]
